Measurements: patent US20160130278A1 (TAISHO PHARMACEUTICAL CO., LTD, priority 2013, published 2016)

The compounds below were run against T1, human type 1 glycine transporter (GlyT1) (Homo sapiens, UniProt P48067) (assay: Glycine uptake inhibition experiment ([3H]glycine uptake)). Settings: GlyT1.
T1 construct: T98G cells (glioma cells) expressing human type 1 glycine transporter (GlyT1) were used
T1 sequence (P48067 1-706): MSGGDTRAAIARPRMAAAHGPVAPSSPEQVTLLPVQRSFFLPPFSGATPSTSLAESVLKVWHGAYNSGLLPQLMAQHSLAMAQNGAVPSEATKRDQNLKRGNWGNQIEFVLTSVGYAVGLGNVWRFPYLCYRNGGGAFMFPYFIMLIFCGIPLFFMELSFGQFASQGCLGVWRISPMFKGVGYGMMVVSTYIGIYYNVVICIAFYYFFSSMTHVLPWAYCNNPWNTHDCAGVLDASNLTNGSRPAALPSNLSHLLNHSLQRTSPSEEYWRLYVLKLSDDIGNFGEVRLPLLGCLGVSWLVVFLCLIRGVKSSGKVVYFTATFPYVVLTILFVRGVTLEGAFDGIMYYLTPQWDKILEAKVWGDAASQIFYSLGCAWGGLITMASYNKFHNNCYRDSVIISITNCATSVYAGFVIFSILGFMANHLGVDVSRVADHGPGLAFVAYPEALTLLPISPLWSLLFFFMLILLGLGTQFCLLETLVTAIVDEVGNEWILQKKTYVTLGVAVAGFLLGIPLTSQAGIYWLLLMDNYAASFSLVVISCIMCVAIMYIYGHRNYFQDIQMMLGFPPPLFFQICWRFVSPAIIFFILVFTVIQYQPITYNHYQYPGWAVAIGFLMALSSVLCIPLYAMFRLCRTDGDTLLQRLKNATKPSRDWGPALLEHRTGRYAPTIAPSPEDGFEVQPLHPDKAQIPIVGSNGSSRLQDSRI
Format: cell-based
Method in brief: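 T98G glioma cells expressing human GlyT1 were pretreated 10 min with compound in HEPES buffer pH 7.4 (0.2% BSA), then incubated with compound plus 250 nM final [3H]glycine for 15 min at room temperature. Intracellular radioactivity was counted after NaOH lysis; 10 μM ALX5407 defined non-specific uptake. IC50 came from 10^−9–10^−5 M curves.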

Q: `N#Cc1cccc([C@H](NC(=O)c2nccc(C(F)(F)F)c2Cl)C2(O)CCCC2)c1` [Compound 37, 3-chloro-N-[(S)-(3-cyanophenyl)(1-hydroxycyclopentyl)methyl]-4-(trifluoromethyl)pyridine-2-carboxamide] was tested. Which IC50 did it give?
A: 260 nM

Q: For `CCn1cc(-c2cccc(C(NC(=O)c3nccc(C(F)(F)F)c3Cl)C3(O)CCC(F)(F)CC3)c2)cn1` (single isomer, unassigned) [Compound 92, 3-chloro-N-{(4,4-difluoro-1-hydroxycyclohexyl)[3-(1-ethyl-1H-pyrazol-4-yl)phenyl]methyl}-4-(trifluoromethyl)pyridine-2-carboxamide], which IC50 is on record?
A: 27 nM

Q: How did the IC50 turn out when `CC(=O)c1ccc(-c2cccc(C(NC(=O)c3cccc(C(F)(F)F)c3Cl)C3(O)CCCC3)c2)cc1` (stereo not shown) [Compound 6, N-[(4′-acetylbiphenyl-3-yl)(1-hydroxycyclopentyl)methyl]-2-chloro-3-(trifluoromethyl)benzamide] was run?
A: 670 nM

Q: For `Cc1ccc(Cl)c(C(=O)NC(c2cccc(F)c2Cl)[C@]2(O)CC[C@@H](F)CC2)c1` (single isomer, unassigned) [Compound 294, 2-chloro-N-[(2-chloro-3-fluorophenyl)(cis-4-fluoro-1-hydroxycyclohexyl)methyl]-5-methylbenzamide], which IC50 is on record?
A: 990 nM

Q: `O=C(NC(c1cccc(Cl)c1)[C@]1(O)CC[C@@H](F)CC1)c1nccc(C(F)(F)F)c1Cl` (stereo partly drawn) [Compound 153, 3-chloro-N-[(3-chlorophenyl)(cis-4-fluoro-1-hydroxycyclohexyl)methyl]-4-(trifluoromethyl)pyridine-2-carboxamide] was tested. Which IC50 did it give?
A: 98 nM

Q: `O=C(NC(c1cccc(Cl)c1)C1(O)CCCC1)c1nccc(C(F)(F)F)c1Cl` (single isomer, unassigned) [Compound 55, 3-chloro-N-[(3-chlorophenyl)(1-hydroxycyclopentyl)methyl]-4-(trifluoromethyl)pyridine-2-carboxamide] was tested. Which IC50 did it give?
A: 8000 nM

Q: For `CCn1cc(-c2cccc(C(NC(=O)c3cc(C(F)(F)F)ccc3Cl)C3(O)CCC(F)(F)CC3)c2)cn1` (stereo not shown) [Compound 180, 2-chloro-N-{(4,4-difluoro-1-hydroxycyclohexyl)[3-(1-ethyl-1H-pyrazol-4-yl)phenyl]methyl}-5-(trifluoromethyl)benzamide], which IC50 is on record?
A: 210 nM

Q: `O=C(NC(c1cccc(F)c1Cl)[C@]1(O)CC[C@@H](F)CC1)c1cc(C(F)(F)F)ccc1Cl` (single isomer, unassigned) [Compound 292, 2-chloro-N-[(2-chloro-3-fluorophenyl)(cis-4-fluoro-1-hydroxycyclohexyl)methyl]-5-(trifluoromethyl)benzamide] was tested. Which IC50 did it give?
A: 120 nM

Q: With `O=C(NC(c1cccc(F)c1Cl)[C@]1(O)CC[C@@H](F)CC1)c1nsc(Cl)c1Cl` (single isomer, unassigned) [Compound 271, 4,5-dichloro-N-[(2-chloro-3-fluorophenyl)(cis-4-fluoro-1-hydroxycyclohexyl)methyl]-1,2-thiazol-3-carboxamide] as the compound, how does the IC50 read?
A: 1100 nM

Q: For `O=C(NC(c1cccnc1)[C@]1(O)CC[C@@H](F)CC1)c1nccc(C(F)(F)F)c1Cl` (single isomer, unassigned) [Compound 266, 3-chloro-N-[(cis-4-fluoro-1-hydroxycyclohexyl)(pyridin-3-yl)methyl]-4-(trifluoromethyl)pyridine-2-carboxamide], which IC50 is on record?
A: 1600 nM

Q: `O=C(NC(c1cccc(F)c1F)C1(O)CCC(F)CC1)c1nccc(C(F)(F)F)c1Cl` (single isomer, unassigned) [Compound 204, 3-chloro-N-[(2,3-difluorophenyl)(4-fluoro-1-hydroxycyclohexyl)methyl]-4-(trifluoromethyl)pyridine-2-carboxamide] was tested. Which IC50 did it give?
A: 100 nM

Q: How did the IC50 turn out when `O=C(NC(c1ccccc1Cl)C1(O)CCC(F)(F)CC1)c1nccc(C(F)(F)F)c1Cl` (stereo not shown) [Compound 103, 3-chloro-N-[(2-chlorophenyl)(4,4-difluoro-1-hydroxycyclohexyl)methyl]-4-(trifluoromethyl)pyridine-2-carboxamide] was run?
A: 250 nM

Q: `Cc1ccc(C(F)(F)F)c(C(=O)NC(c2cccc(F)c2Cl)[C@]2(O)CC[C@@H](F)CC2)n1` (single isomer, unassigned) [Compound 315, N-[(2-chloro-3-fluorophenyl)(cis-4-fluoro-1-hydroxycyclohexyl)methyl]-6-methyl-3-(trifluoromethyl)pyridine-2-carboxamide] was tested. Which IC50 did it give?
A: 820 nM

Q: With `O=C(NC(c1cccc(F)c1Cl)[C@]1(O)CC[C@@H](F)CC1)c1c(Cl)cccc1C(F)(F)F` (single isomer, unassigned) [Compound 306, 2-chloro-N-[(2-chloro-3-fluorophenyl)(cis-4-fluoro-1-hydroxycyclohexyl)methyl]-6-(trifluoromethyl)benzamide] as the compound, how does the IC50 read?
A: 670 nM

Q: Which IC50 does the source give for `O=C(NC(c1cccc(F)c1Cl)[C@]1(O)CC[C@@H](F)CC1)c1cccc(Cl)c1Cl` (single isomer, unassigned) [Compound 248, 2,3-dichloro-N-[(2-chloro-3-fluorophenyl)(cis-4-fluoro-1-hydroxycyclohexyl)methyl]benzamide] here?
A: 900 nM

Q: For `CS(=O)(=O)c1ccc(C(F)(F)F)cc1C(=O)NC(c1cc(Cl)ccn1)[C@]1(O)CC[C@@H](F)CC1` (single isomer, unassigned) [Compound 396, N-[(4-chloropyridin-2-yl)(cis-4-fluoro-1-hydroxycyclohexyl]methyl]-2-(methylsulfonyl)-5-(trifluoromethyl)benzamide], which IC50 is on record?
A: 290 nM

Q: Which IC50 does the source give for `O=C(NC(c1cccc(F)c1Cl)[C@]1(O)CC[C@@H](F)CC1)c1ccc(C(F)(F)F)cc1-n1nccn1` (single isomer, unassigned) [Compound 380, N-[(2-chloro-3-fluorophenyl)(cis-4-fluoro-1-hydroxycyclohexyl)methyl]-2-(2H-1,2,3-triazol-2-yl)-4-(trifluoromethyl)benzamide] here?
A: 270 nM

Q: For `O=C(NC(c1cc(Cl)cc(Cl)c1)C1(O)CCCC1)c1nccc(C(F)(F)F)c1Cl` (stereo not shown) [Compound 111, 3-chloro-N-[(3,5-dichlorophenyl)(1-hydroxycyclopentyl)methyl]-4-(trifluoromethyl)pyridine-2-carboxamide], which IC50 is on record?
A: 220 nM

Q: With `[2H]C1([2H])C([2H])([2H])C([2H])([2H])C(O)(C(NC(=O)c2nccc(C(F)(F)F)c2Cl)c2cccc(Cl)c2)C([2H])([2H])C1([2H])[2H]` (single isomer, unassigned) [Compound 232, 3-chloro-N-{(3-chlorophenyl)[1-hydroxy(^2H10)cyclohexyl]methyl}-4-(trifluoromethyl)pyridine-2-carboxamide] as the compound, how does the IC50 read?
A: 1400 nM

Q: For `CCn1cc(-c2cccc(C(NC(=O)c3cccc4ccccc34)C3(O)CCC(F)(F)CC3)c2)cn1` (stereo not shown) [Compound 138, N-{(4,4-difluoro-1-hydroxycyclohexyl)[3-(1-ethyl-1H-pyrazol-4-yl)phenyl]methyl}naphthalene-1-carboxamide], which IC50 is on record?
A: 840 nM

Q: For `Cc1cc(C(=O)NC(c2cccc(F)c2Cl)[C@]2(O)CC[C@@H](F)CC2)c2cnn(C(C)C)c2n1` (single isomer, unassigned) [Compound 269, N-[(2-chloro-3-fluorophenyl)(cis-4-fluoro-1-hydroxycyclohexyl)methyl]-6-methyl-1-(propan-2-yl)-1H-pyrazolo[3,4-b]pyridine-4-carboxamide], which IC50 is on record?
A: 1700 nM

Q: For `CCn1cc(-c2cccc(C(NC(=O)c3nccnc3Cl)C3(O)CCC(F)(F)CC3)c2)cn1` (stereo not shown) [Compound 141, 3-chloro-N-{(4,4-difluoro-1-hydroxycyclohexyl)[3-(1-ethyl-1H-pyrazol-4-yl)phenyl]methyl}pyradine-2-carboxamide], which IC50 is on record?
A: 3100 nM
